Measurements taken from ChEMBL document CHEMBL1201862, “PubChem BioAssay data set” (2004).
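Grown in 96-well plates, cells were treated for 48 hours with each compound at five concentrations. Insufficient inhibition: endpoint recorded as highest concentration tested. GI50 is the concentration that inhibits growth by half.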 Calls of active or inactive are those of the source. Rule as the data show it: active = GI50 up to about 1.1 µM and inactive = higher.

How the values were obtained:
Test in all cases: NCI-60 cell line screen, 48 h
A498 = system: A498
A549 = system: A549
CCRF-CEM = system: CCRF-CEM
DU-145 = system: DU-145
HT-29 = system: HT-29
IGROV-1 = system: IGROV-1
KM12 = system: KM12
M14 = system: M14
MDA-MB-231 = system: MDA-MB-231
Malme-3M = system: Malme-3M
OVCAR-3 = system: OVCAR-3
SF-268 = system: SF-268
SF-295 = system: SF-295
SF-539 = system: SF-539
SK-MEL-28 = system: SK-MEL-28
SK-MEL-2 = system: SK-MEL-2
SK-OV-3 = system: SK-OV-3
TK-10 = system: TK-10
UO-31 = system: UO-31
HCC 2998 = system: HCC 2998

Measured: GI50

O=C1CCSSCCC(=O)NCCN1
inactive: A498 > 100 µM | A549 > 100 µM | CCRF-CEM > 100 µM | DU-145 > 100 µM | HT-29 > 100 µM | IGROV-1 > 100 µM | KM12 > 100 µM | M14 > 100 µM | MDA-MB-231 > 100 µM | Malme-3M > 100 µM | OVCAR-3 > 100 µM | SF-268 > 100 µM | SF-295 > 100 µM | SF-539 > 100 µM | SK-MEL-28 > 100 µM | SK-MEL-2 > 100 µM | SK-OV-3 > 100 µM | TK-10 > 100 µM | UO-31 > 100 µM

CCOC(=O)c1nc2ccccc2nc1Oc1ccc(OC)cc1
inactive: A498 > 100 µM | A549 > 100 µM | CCRF-CEM > 100 µM | DU-145 > 100 µM | HT-29 > 100 µM | IGROV-1 > 100 µM | KM12 > 100 µM | M14 > 100 µM | MDA-MB-231 > 100 µM | Malme-3M > 100 µM | OVCAR-3 > 100 µM | SF-268 > 100 µM | SF-295 > 100 µM | SF-539 > 100 µM | SK-MEL-28 > 100 µM | SK-MEL-2 > 100 µM | SK-OV-3 > 100 µM | TK-10 > 100 µM | UO-31 > 100 µM

Cc1ccc(NC=O)c(-c2c(N)[nH]c(=S)[nH]c2=O)c1
inactive: A498 > 100 µM | A549 > 100 µM | CCRF-CEM > 100 µM | DU-145 > 100 µM | HT-29 > 100 µM | IGROV-1 > 100 µM | KM12 > 100 µM | M14 > 100 µM | MDA-MB-231 > 100 µM | Malme-3M > 100 µM | OVCAR-3 94.2 µM | SF-268 > 100 µM | SF-295 > 100 µM | SF-539 > 100 µM | SK-MEL-2 > 100 µM | SK-OV-3 12.3 µM | TK-10 > 100 µM | UO-31 > 100 µM

NC(=O)N/N=C1/CCC(O)CC1CC(=O)O (stereo not drawn)
inactive: A498 > 100 µM | A549 > 100 µM | CCRF-CEM 36.3 µM | DU-145 > 100 µM | HT-29 > 100 µM | IGROV-1 > 100 µM | KM12 > 100 µM | M14 > 100 µM | MDA-MB-231 > 100 µM | Malme-3M > 100 µM | OVCAR-3 > 100 µM | SF-268 > 100 µM | SF-295 > 100 µM | SF-539 > 100 µM | SK-MEL-28 > 100 µM | SK-MEL-2 > 100 µM | SK-OV-3 > 100 µM | TK-10 > 100 µM | UO-31 > 100 µM

Cn1c(=O)c2c(nc3n2CCCC(=O)N3CCCCl)n(C)c1=O
inactive: A498 > 100 µM | A549 > 100 µM | CCRF-CEM > 100 µM | DU-145 > 100 µM | HCC 2998 > 100 µM | HT-29 > 100 µM | IGROV-1 > 100 µM | KM12 > 100 µM | M14 > 100 µM | MDA-MB-231 > 100 µM | OVCAR-3 > 100 µM | SF-268 > 100 µM | SF-295 > 100 µM | SK-MEL-28 > 100 µM | SK-MEL-2 > 100 µM | SK-OV-3 > 100 µM | TK-10 > 100 µM | UO-31 > 100 µM

COc1c(O)cc2c(c1O)C(=O)/C(=C/c1ccc(O)cc1)CO2
inactive: A498 40 µM | A549 31 µM | CCRF-CEM 18.1 µM | DU-145 27.1 µM | HT-29 20.1 µM | IGROV-1 24.7 µM | KM12 13.6 µM | M14 28.1 µM | MDA-MB-231 40.2 µM | Malme-3M 30.2 µM | OVCAR-3 27.2 µM | SF-268 29.1 µM | SF-295 37.7 µM | SF-539 20.5 µM | SK-MEL-28 17.7 µM | SK-MEL-2 27 µM | SK-OV-3 24.7 µM | TK-10 35.5 µM | UO-31 23 µM

COc1ccc(C2SCC(=O)N2NC(=O)c2ccc(NC(C)=O)cc2)c(OC)c1 (stereo not drawn)
inactive: A498 > 100 µM | A549 > 100 µM | DU-145 > 100 µM | HCC 2998 > 100 µM | HT-29 > 100 µM | IGROV-1 > 100 µM | KM12 > 100 µM | M14 69.8 µM | MDA-MB-231 > 100 µM | OVCAR-3 > 100 µM | SF-268 > 100 µM | SF-295 > 100 µM | SF-539 > 100 µM | SK-MEL-28 > 100 µM | SK-MEL-2 > 100 µM | SK-OV-3 > 100 µM | TK-10 > 100 µM | UO-31 > 100 µM

COc1ccc(CC2COc3cc(OC)cc(OC)c3C2=O)cc1 (stereo not drawn)
inactive: A498 79.3 µM | A549 33.9 µM | DU-145 21.8 µM | HT-29 17.6 µM | IGROV-1 28.7 µM | KM12 8.81 µM | M14 16.4 µM | MDA-MB-231 33.3 µM | Malme-3M 15.3 µM | OVCAR-3 18.9 µM | SF-268 32.7 µM | SF-295 17.5 µM | SF-539 14.4 µM | SK-MEL-28 20.7 µM | SK-MEL-2 36.5 µM | SK-OV-3 19.8 µM | TK-10 21.3 µM | UO-31 24.7 µM
